# Target: T1, recombinant c-Myc/Max (Homo sapiens, UniProt P01106+P61244)
# T1 construct: made in house
# Test: Electrophoretic mobility shift assay (EMSA): inhibitory activity on DNA binding of recombinant c-Myc/Max
# Conditions: read-out: protein assay IC50
# Description: 1) Preparation of Recombinant c-Myc and Max Proteins
# Recombinant proteins were prepared as described in the following references: K. C. Jung et al., Fatty Acids, Inhibitors for the DNA Binding of c-Myc/Max Dimer, Suppress Proliferation and Induce Apoptosis of Differentiated HL-60 Human Leukemia Cell, Leukemia, 2006, 20(1), 122-7 or Kyung-Chae Jeong et al., Small-Molecule Inhibitors of c-Myc Transcriptional Factor Suppress Proliferation and Induce Apoptosis of Promyelocytic Leukemia Cell via Cell Cycle Arrest, Mol. BioSyst., 2010, 6, 1503-1509.
# 2) Electrophoretic Mobility Shift Assay (EMSA)
# The inhibitory activity of each candidate compound on DNA binding of recombinant c-Myc/Max was measured using an electrophoretic mobility shift assay (EMSA). The ratio of protein-DNA complexes in each sample was evaluated by measuring band intensity. The oligonucleotides (E-box) corresponding to the consensus binding site of Myc/Max were dimerized through an annealing process. The protein mixture was incubated at room temperature for 5 minutes, and a DMSO solution containing each candidate compound was added thereto. The mixture was further incubated for 5 minutes, and the biotinylated DNA was added. To achieve a state of equilibrium, the final mixture was incubated at room temperature for 10 minutes. The protein-DNA complexes were separated from unbound free DNA by pre-electrophoresis using 8% polyacrylamide gel and 1×TBE buffer. After pre-electrophoresis, electrophoresis was performed at 120 V for 1 hour in 1×TBE buffer. Each band was visualized using HRP-conjugated streptavidin and an ECL solution, and band intensity was measured using image analysis software.
# T1 sequence (P01106 whole entry): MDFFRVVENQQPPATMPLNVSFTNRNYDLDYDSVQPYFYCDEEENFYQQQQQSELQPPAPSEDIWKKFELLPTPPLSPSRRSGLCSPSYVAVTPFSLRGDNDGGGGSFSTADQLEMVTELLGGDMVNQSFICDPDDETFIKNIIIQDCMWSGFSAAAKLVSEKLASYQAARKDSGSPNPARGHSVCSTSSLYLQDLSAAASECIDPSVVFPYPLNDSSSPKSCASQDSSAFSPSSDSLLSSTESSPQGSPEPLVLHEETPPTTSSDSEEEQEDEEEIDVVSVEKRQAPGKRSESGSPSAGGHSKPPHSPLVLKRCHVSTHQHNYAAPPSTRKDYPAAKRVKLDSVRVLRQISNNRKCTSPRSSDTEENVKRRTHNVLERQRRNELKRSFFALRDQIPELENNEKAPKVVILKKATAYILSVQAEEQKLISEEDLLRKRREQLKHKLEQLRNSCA
# T1 sequence (P61244 whole entry): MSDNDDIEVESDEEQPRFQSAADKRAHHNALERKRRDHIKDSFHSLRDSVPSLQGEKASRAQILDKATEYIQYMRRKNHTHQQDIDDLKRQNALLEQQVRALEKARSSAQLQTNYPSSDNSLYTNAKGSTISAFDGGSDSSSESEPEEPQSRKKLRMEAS
row,Compound,IC50
1,"CC(=O)c1c(S(C)(=O)=O)n(C(=O)c2ccc(Br)cc2)c2c(Br)ccc(Cl)c2c1=O [Compound 21, 3-acetyl-8-bromo-1-(4-bromobenzoyl)-5-chloro-2-(methylsulfonyl)quinolin-4(1H)-one]",< 1 µM
2,"CC(=O)c1c([S+](C)[O-])n(Cc2ccc(F)c(Cl)c2)c2c(Br)ccc(Cl)c2c1=O (centres unmarked) [Compound 22, 3-acetyl-8-bromo-5-chloro-1-(3-chloro-4-fluorobenzyl)-2-(methylsulfinyl)quinolin-4(1H)-one]",< 1 µM
3,"CC(=O)c1c(SCc2ccccc2)n(C(=O)c2ccc(Br)cc2)c2c(Br)ccc(Cl)c2c1=O [Compound 23, 3-acetyl-2-(benzylthio)-8-bromo-1-(4-bromobenzoyl)-5-chloroquinolin-4(1H)-one]",< 1 µM
4,"CC(=O)c1c(SC(C)C)[nH]c2c(Br)ccc(Cl)c2c1=O [Compound 24, 3-acetyl-8-bromo-5-chloro-2-(isopropylthio)quinolin-4(1H)-one]",< 1 µM
5,"CC(=O)c1c([S+]([O-])C(C)C)[nH]c2c(Br)ccc(Cl)c2c1=O (centres unmarked) [Compound 25, 3-acetyl-8-bromo-5-chloro-2-(isopropylsulfinyl)quinolin-4(1H)-one]",< 1 µM
6,"CC(=O)c1c([S+]([O-])C(C)c2ccccc2)[nH]c2c(Br)ccc(Cl)c2c1=O (centres unmarked) [Compound 26, 3-acetyl-8-bromo-5-chloro-2-((1-phenylethyl)sulfinyl)quinolin-4(1H)-one]",< 1 µM
7,"CC(=O)c1c(SCc2cccc(C#N)c2)[nH]c2c(Br)ccc(Cl)c2c1=O [Compound 27, 3-(((3-acetyl-8-bromo-5-chloro-4-oxo-1,4-dihydroquinolin-2-yl)thio)methyl)benzonitrile]",< 1 µM
8,"CC(=O)c1c([S+]([O-])Cc2cccc(C#N)c2)[nH]c2c(Br)ccc(Cl)c2c1=O (centres unmarked) [Compound 28, 3-(((3-acetyl-8-bromo-5-chloro-4-oxo-1,4-dihydroquinolin-2-yl)sulfinyl)methyl)benzonitrile]",< 1 µM
9,"CC(=O)c1c([S+]([O-])Cc2ccc(F)cc2F)[nH]c2c(Br)ccc(Cl)c2c1=O (centres unmarked) [Compound 29, 3-acetyl-8-bromo-5-chloro-2-((2,4-difluorobenzyl)sulfinyl)quinolin-4(1H)-one]",< 1 µM
10,"CC(=O)c1c(SCc2ccc(F)c(Cl)c2)[nH]c2c(Br)ccc(Cl)c2c1=O [Compound 30, 3-acetyl-8-bromo-5-chloro-2-((3-chloro-4-fluorobenzyl)thio)quinolin-4(1H)-one]",< 1 µM
11,"CC(=O)c1c([S+]([O-])Cc2ccc(F)c(Cl)c2)[nH]c2c(Br)ccc(Cl)c2c1=O (centres unmarked) [Compound 31, 3-acetyl-8-bromo-5-chloro-2-((3-chloro-4-fluorobenzyl)sulfinyl)quinolin-4(1H)-one]",< 1 µM
12,"CC(=O)c1c(SCc2ccc([N+](=O)[O-])cc2)[nH]c2c(Br)ccc(Cl)c2c1=O [Compound 32, 3-acetyl-8-bromo-5-chloro-2-((4-nitrobenzyl)thio)quinolin-4(1H)-one]",< 1 µM
13,"CC(=O)c1c(S(=O)(=O)Cc2ccccc2)[nH]c2c(Br)ccc(Cl)c2c1=O [Compound 34, 3-acetyl-2-(benzylsulfonyl)-8-bromo-5-chloroquinolin-4(1H)-one]",< 1 µM
14,"CSc1c(C(C)=O)c(=O)c2c(Cl)ccc(Br)c2n1S(C)(=O)=O [Compound 35, 3-acetyl-8-bromo-5-chloro-1-(methylsulfonyl)-2-(methylthio)quinolin-4(1H)-one]",< 1 µM
15,"CC(=O)c1c([S+](C)[O-])n(S(=O)(=O)C(F)(F)F)c2c(Br)ccc(Cl)c2c1=O (centres unmarked) [Compound 36, 3-acetyl-8-bromo-5-chloro-2-(methylsulfinyl)-1-((trifluoromethyl)sulfonyl)quinolin-4(1H)-one]",< 1 µM
16,"CSc1c(C(C)=O)c(=O)c2c(Cl)ccc(Br)c2n1S(=O)(=O)c1ccc(Cl)cc1 [Compound 37, 3-acetyl-8-bromo-5-chloro-1-((4-chlorophenyl)sulfonyl)-2-(methylthio)quinolin-4(1H)-one]",< 1 µM
17,"CSc1c(C(C)=O)c(=O)c2c(Cl)ccc(Br)c2n1S(=O)(=O)c1ccc([N+](=O)[O-])cc1 [Compound 38, 3-acetyl-8-bromo-5-chloro-2-(methylthio)-1-((4-nitrophenyl)sulfonyl)quinolin-4(1H)-one]",< 1 µM
18,"CCS(=O)(=O)n1c([S+](C)[O-])c(C(C)=O)c(=O)c2c(Cl)ccc(Br)c21 (centres unmarked) [Compound 39, 3-acetyl-8-bromo-5-chloro-1-(ethylsulfonyl)-2-(methylsulfinyl)quinolin-4(1H)-one]",< 1 µM
19,"CSc1c(C(C)=O)c(=O)c2c(Cl)ccc(Br)c2n1S(=O)(=O)c1ccc(C(C)(C)C)cc1 [Compound 40, 3-acetyl-8-bromo-1-((4-(tert-butyl)phenyl)sulfonyl)-5-chloro-2-(methylthio)quinolin-4(1H)-one]",< 1 µM
20,"CC(=O)c1c(S(C)(=O)=O)n(S(=O)(=O)c2ccc(C(C)(C)C)cc2)c2c(Br)ccc(Cl)c2c1=O [Compound 41, 3-acetyl-8-bromo-1-((4-(tert-butyl)phenyl)sulfonyl)-5-chloro-2-(methylsulfonyl)quinolin-4(1H)-one]",< 1 µM
21,"CC(=O)c1c([S+](C)[O-])n(S(=O)(=O)c2ccc(C(C)(C)C)cc2)c2c(Br)ccc(Cl)c2c1=O (centres unmarked) [Compound 42, 3-acetyl-8-bromo-1-((4-(tert-butyl)phenyl)sulfonyl)-5-chloro-2-(methylsulfinyl)quinolin-4(1H)-one]",< 1 µM
22,"CC(=O)c1c(SCc2cc(Cl)ccc2Cl)[nH]c2c(Br)ccc(Cl)c2c1=O [Compound 43, 3-acetyl-8-bromo-5-chloro-2-((2,5-dichlorobenzyl)thio)quinolin-4(1H)-one]",< 1 µM
23,"CC(=O)c1c([S+]([O-])Cc2cc(Cl)ccc2Cl)[nH]c2c(Br)ccc(Cl)c2c1=O (centres unmarked) [Compound 44, 3-acetyl-8-bromo-5-chloro-2-((2,5-dichlorobenzyl)sulfinyl)quinolin-4(1H)-one]",< 1 µM
24,"CC(=O)c1c(SCc2cc(F)cc(F)c2)[nH]c2c(Br)ccc(Cl)c2c1=O [Compound 45, 3-acetyl-8-bromo-5-chloro-2-((3,5-difluorobenzyl)thio)quinolin-4(1H)-one]",< 1 µM
25,"CC(=O)c1c([S+]([O-])Cc2cc(F)cc(F)c2)[nH]c2c(Br)ccc(Cl)c2c1=O (centres unmarked) [Compound 46, 3-acetyl-8-bromo-5-chloro-2-((3,5-difluorobenzyl)sulfinyl)quinolin-4(1H)-one]",< 1 µM
26,"CC(=O)c1c(SCc2cccc(I)c2)[nH]c2c(Br)ccc(Cl)c2c1=O [Compound 47, 3-acetyl-8-bromo-5-chloro-2-((3-iodobenzyl)thio)quinolin-4(1H)-one]",< 1 µM
27,"CC(=O)c1c([S+]([O-])Cc2cccc(I)c2)[nH]c2c(Br)ccc(Cl)c2c1=O (centres unmarked) [Compound 48, 3-acetyl-8-bromo-5-chloro-2-((3-iodobenzyl)sulfinyl)quinolin-4(1H)-one]",< 1 µM
28,"CC(=O)c1c(SCc2cccc(F)c2)[nH]c2c(Br)ccc(Cl)c2c1=O [Compound 49, 3-acetyl-8-bromo-5-chloro-2-((3-fluorobenzyl)thio)quinolin-4(1H)-one]",< 1 µM
29,"CC(=O)c1c([S+]([O-])Cc2cccc(F)c2)[nH]c2c(Br)ccc(Cl)c2c1=O (centres unmarked) [Compound 50, 3-acetyl-8-bromo-5-chloro-2-((3-fluorobenzyl)sulfinyl)quinolin-4(1H)-one]",< 1 µM

# From patent US9951021B2, “Compounds for inhibiting c-Myc/Max/DNA complex formation” (NATIONAL CANCER CENTER, priority 2016, dated 2018)
